Results taken from patent publication EP3858818A1, “TRIKETONE COMPOUND, PREPARATION METHOD THEREFOR AND USE THEREOF, AND HERBICIDE” (Shandong Cynda Chemical Co., LTD., priority 2018, dated 2020).

Legend:
Type in all cases: in vivo
[1] = tested on: Aegilops squarrosa, Avenafatua, Bromus japonicus, Alopecurus aequalis, and Alopecurus japonicus; test: Re-screening with reduced concentration, summary in text for gramineous weeds of wheat fields; conditions: at three application concentrations (120, 60, 30 g.a.i/ha); result in words
Abutilon theophrasti = test: Preliminary screening test (pot-culture method), post-emergence stem and leaf spray; conditions: 150 g.a.i/ha; stems and leaves sprayed at 4-5 leaves stage; investigated after 30 days; visual rating
From the text: (§1) Preliminary screening test (pot-culture method): the targets of the test are Echinochloa crusgalli, Digitaria sanguinalis, Setaria viridis, Amaranthus tricolor, Chenopodium album, Abutilontheophrasti. Spraying the stems and leaves after seedlings: taking a paper cup with an inner diameter of 7 cm and fill it with composite soil (vegetable garden soil: seedling substrate, 1: 2, v/v) to 3/4 of the cup. Sowing weeds directly, cover it with 0.2 cm soil and wait until it grows to 4-5 leaves stage for later use. The compounds of the invention and the aforementioned comparative compound D1 are applied in an automatic spray tower at a dose of 150 g.a.i/ha (g/ha). After the liquid on the crop leaves is dried in the air, the crops are transferred to the greenhouse for cultivation (humidity 70%), and the results were investigated after 30 days.
(§2) The growth inhibition rate evaluation method is a visual method. The growth inhibition rate is rated specifically according to the conditions shown in table 2, and the test results are shown in Table 3.

Chenopodium album = test: as above; conditions: 150 g.a.i/ha; stems and leaves sprayed at 4-5 leaves stage; investigated after 30 days; visual rating
From the text: as §1, §2

Digitaria sanguinalis [2] = test: as above; conditions: 150 g.a.i/ha; stems and leaves sprayed at 4-5 leaves stage; investigated after 30 days; visual rating
From the text: as §1, §2

Echinochloa crusgalli [3] = test: as above; conditions: 150 g.a.i/ha; stems and leaves sprayed at 4-5 leaves stage; investigated after 30 days; visual rating
From the text: as §1, §2

Setaria viridis [4] = test: as above; conditions: 150 g.a.i/ha; stems and leaves sprayed at 4-5 leaves stage; investigated after 30 days; visual rating
From the text: as §1, §2

Amaranthus tricolor = test: as above; conditions: 150 g.a.i/ha; stems and leaves sprayed at 4-5 leaves stage; investigated after 30 days; visual rating
From the text: as §1, §2

Bromus japonicus = test: Re-screen assay at low dose (pot-culture method); conditions: post-emergence spray, 30 days
From the text: as §1, §2
(§3) The same method as in test example 1 is used to conduct re-screen assays at the low dose for representative compounds, and the results are shown in Table 4.

Digitaria sanguinalis [5] = test: Re-screen assay at low dose (pot-culture method); conditions: post-emergence spray, 30 days
From the text: as §1, §2, §3

Echinochloa crusgalli [6] = test: Re-screen assay at low dose (pot-culture method); conditions: post-emergence spray, 30 days
From the text: as §1, §2, §3

Aegilops squarrosa = test: Re-screen assay at low dose (pot-culture method); conditions: post-emergence spray, 30 days
From the text: as §1, §2, §3

Avena fatua = test: Re-screen assay at low dose (pot-culture method); conditions: post-emergence spray, 30 days
From the text: as §1, §2, §3

Setaria viridis [7] = test: Re-screen assay at low dose (pot-culture method); conditions: post-emergence spray, 30 days
From the text: as §1, §2, §3

Alopecurus japonicus = test: Re-screen assay at low dose (pot-culture method); conditions: post-emergence spray, 30 days
From the text: as §1, §2, §3

Alopecurus aequalis = test: Re-screen assay at low dose (pot-culture method); conditions: post-emergence spray, 30 days
From the text: as §1, §2, §3

SMILES: Cc1cccc(C)c1-n1c(=O)c2cc(C(=O)C3=C(O)CCCC3=O)ccc2n(C)c1=O [Compound D1]
- herbicidal activity on gramineous weeds in wheat fields [1]: hardly shows herbicidal activity
- Inhibition Level Abutilon theophrasti (Abutilon theophrasti): 4 (weeds or crops die.)
- Inhibition Level Chenopodium album (Chenopodium album): 5 (weeds or crops die completely.)
- Inhibition Level Digitaria sanguinalis (Digitaria sanguinalis [2]): 4 (weeds or crops die.)
- Inhibition Level Echinochloa crusgalli (Echinochloa crusgalli [3]): 4 (weeds or crops die.)
- Inhibition Level Setaria viridis (Setaria viridis [4]): 4 (weeds or crops die.)
- Inhibition Level Amaranthus tricolor (Amaranthus tricolor): 4 (weeds or crops die.)
- Inhibition Level Bromus japonicus (Bromus japonicus; 30 g.a.i/ha): 0 (has no influence on the growth of weeds or crops and has no drug effect symptom.)
- Inhibition Level Bromus japonicus (Bromus japonicus; 60 g.a.i/ha): 0 (has no influence on the growth of weeds or crops and has no drug effect symptom.)
- Inhibition Level Bromus japonicus (Bromus japonicus; 120 g.a.i/ha): 0 (has no influence on the growth of weeds or crops and has no drug effect symptom.)
- Inhibition Level Digitaria sanguinalis (Digitaria sanguinalis [5]; 30 g.a.i/ha): 3 (weeds or crops are subject to severe growth inhibition.)
- Inhibition Level Digitaria sanguinalis (Digitaria sanguinalis [5]; 60 g.a.i/ha): 3 (weeds or crops are subject to severe growth inhibition.)
- Inhibition Level Digitaria sanguinalis (Digitaria sanguinalis [5]; 120 g.a.i/ha): 4 (weeds or crops die.)
- Inhibition Level Echinochloa crusgalli (Echinochloa crusgalli [6]; 30 g.a.i/ha): 3 (weeds or crops are subject to severe growth inhibition.)
- Inhibition Level Echinochloa crusgalli (Echinochloa crusgalli [6]; 60 g.a.i/ha): 3 (weeds or crops are subject to severe growth inhibition.)
- Inhibition Level Echinochloa crusgalli (Echinochloa crusgalli [6]; 120 g.a.i/ha): 4 (weeds or crops die.)
- Inhibition Level Aegilops squarrosa (Aegilops squarrosa; 30 g.a.i/ha): 0 (has no influence on the growth of weeds or crops and has no drug effect symptom.)
- Inhibition Level Aegilops squarrosa (Aegilops squarrosa; 60 g.a.i/ha): 1 (slightly affects the growth of weeds or crops, and has no obvious drug effect symptom.)
- Inhibition Level Aegilops squarrosa (Aegilops squarrosa; 120 g.a.i/ha): 2 (has certain effect on weed or crop growth, and has obvious drug effect.)
- Inhibition Level Avena fatua (Avena fatua; 30 g.a.i/ha): 0 (has no influence on the growth of weeds or crops and has no drug effect symptom.)
- Inhibition Level Avena fatua (Avena fatua; 60 g.a.i/ha): 0 (has no influence on the growth of weeds or crops and has no drug effect symptom.)
- Inhibition Level Avena fatua (Avena fatua; 120 g.a.i/ha): 2 (has certain effect on weed or crop growth, and has obvious drug effect.)
- Inhibition Level Setaria viridis (Setaria viridis [7]; 30 g.a.i/ha): 3 (weeds or crops are subject to severe growth inhibition.)
- Inhibition Level Setaria viridis (Setaria viridis [7]; 60 g.a.i/ha): 3 (weeds or crops are subject to severe growth inhibition.)
- Inhibition Level Setaria viridis (Setaria viridis [7]; 120 g.a.i/ha): 4 (weeds or crops die.)
- Inhibition Level Alopecurus japonicus (Alopecurus japonicus; 30 g.a.i/ha): 0 (has no influence on the growth of weeds or crops and has no drug effect symptom.)
- Inhibition Level Alopecurus japonicus (Alopecurus japonicus; 60 g.a.i/ha): 0 (has no influence on the growth of weeds or crops and has no drug effect symptom.)
- Inhibition Level Alopecurus japonicus (Alopecurus japonicus; 120 g.a.i/ha): 0 (has no influence on the growth of weeds or crops and has no drug effect symptom.)
- Inhibition Level Alopecurus aequalis (Alopecurus aequalis; 30 g.a.i/ha): 0 (has no influence on the growth of weeds or crops and has no drug effect symptom.)
- Inhibition Level Alopecurus aequalis (Alopecurus aequalis; 60 g.a.i/ha): 0 (has no influence on the growth of weeds or crops and has no drug effect symptom.)
- Inhibition Level Alopecurus aequalis (Alopecurus aequalis; 120 g.a.i/ha): 1 (slightly affects the growth of weeds or crops, and has no obvious drug effect symptom.)
